From US20260327243A1, “SPIRO-HETEROCYCLIC INHIBITORS OF KRAS G12C MUTANT PROTEINS AND USES THEREOF” (AMGEN INC., priority 2023, published 2026)

target: KRAS^G12C (Homo sapiens, UniProt P01116, C118A/G12C); assay: Coupled Nucleotide Exchange Assay; assay type: biochemical; details: GDP-bound KRAS (aa 1-169) G12C/C118A; 2 h compound pre-incubation; SOS-mediated exchange, 30 min; cRAF binding (AlphaLISA)
Method: The KRAS^G12C coupled nucleotide exchange assay allows for the screening and profiling of KRAS^G12C antagonists/inhibitors by monitoring the binding of an effector protein (e.g., a Ras binding domain of Raf1, RBD-cRaf) to KRAS^G12C. Purified GDP-bound KRAS protein (aa 1-169), containing both G12C and C118A amino acid substitutions and an N-terminal His-tag, was pre-incubated in assay buffer (25 mM HEPES pH 7.4, 10 mM MgCl2, 0.01% Triton X-100, either with or without 0.1% BSA) with serially diluted compound for 2 h. For all subsequent steps, BSA was omitted and DTT was added to the reaction buffer at a final concentration of 1 mM. Following compound pre-incubation, purified SOS protein (aa 564-1049) and GTP (Roche 10106399001) were added to the assay wells and incubated for an additional 30 min. To determine the extent of inhibition of SOS-mediated nucleotide exchange, purified GST-tagged cRAF (aa 1-149), nickel chelate AlphaLISA acceptor beads (PerkinElmer AL108R), and AlphaScreen glutathione donor beads (PerkinElmer 6765302) were added to the assay wells and incubated for 5-30 min. The assay plates were then read on a plate reader measuring luminescence signal. Signal intensity of compound-containing wells were normalized to DMSO control, and data were analyzed using a 4-parameter logistic model to calculate IC50 values.

Sequence of KRAS^G12C (P01116 1-169 isoform P01116-2 G12C/C118A): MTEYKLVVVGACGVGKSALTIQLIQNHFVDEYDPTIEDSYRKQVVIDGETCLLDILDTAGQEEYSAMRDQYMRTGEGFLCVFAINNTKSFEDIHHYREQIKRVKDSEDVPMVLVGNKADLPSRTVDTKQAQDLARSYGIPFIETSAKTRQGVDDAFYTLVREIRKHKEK

C=CC(=O)N1CCN(C2CN(c3cc(N4CCC5(CCCO5)[C@H](CO)C4)nc(C(F)(F)F)c3C#N)C2)CC1 (single isomer, unassigned) [Compound 3-062-1] and C=CC(=O)N1CCN(C2CN(c3cc(N4CCC5(CC4)COC5)nc(C(F)(F)F)c3C#N)C2)CC1 [Compound 3-019, 4-(3-(4-acryloylpiperazin-1-yl)-azetidin-1-yl)-6-(2-oxa-7-azaspiro [3.5]nonan-7-yl)-2-(trifluorometh-yl)nicotinonitrile] are within 1.5-fold of each other in IC50: 4.66 µM for the first, 4.4 µM for the second.

First: C=CC(=O)N1CCN(C2CN(c3cc(N4CCC5(CC4)O[C@@H](C)C=C5Cl)nc(C(F)(F)F)c3C#N)C2)CC1 (single isomer, unassigned) [Compound 3-067-2]
Second: C=CC(=O)N1CCN(C2CN(c3cc(N4CCC5(CC4)CC(C)(O)CO5)nc(C(F)(F)F)c3C#N)C2)CC1 (stereo not drawn) [Compound 3-029, 4-(3-(4-acryloylpiperazin-1-yl)azetidin-1-yl)-6-(3-hydroxy-3-methyl-1-oxa-8-azaspiro[4.5]decan-8-yl)-2-(trifluoromethyl)nicotinonitrile]
The IC50 of the first is 10-fold lower: 0.867 µM for the first, 8.68 µM for the second. The first is the more potent here.

Going from C=CC(=O)N1CCN([C@@H]2CN(c3cc(N4CC[C@@]5(CC4C)OCCc4ncsc45)nc(C(F)(F)F)n3)[C@@H]2C)CC1 (single isomer, unassigned) [Compound 3-091-2] to C=CC(=O)N1CCN([C@@H]2CN(c3cc(N4CCC5(C[C@@H]4C)OCC=C5C)nc(C(F)(F)F)n3)[C@@H]2C)CC1 (stereo partly drawn) [Compound 3-006, 1-(4-((2R,3R)-1-(6-(4,7-dimethyl-1-oxa-8-azaspiro[4.5]dec-3-en-8-yl)-2-(trifluoromethyl)pyrimidin-4-yl)-2-methylazetidin-3-yl)piper-azin-1-yl)prop-2-en-1-one], the IC50 rises from 0.883 µM to 2.24 µM (2.5-fold). The first is the more potent here.

Going from C=CC(=O)N1CCN([C@@H]2CN(c3cc(N4CCC5(C[C@@H]4C)OCC=C5C)nc(C(F)F)n3)[C@@H]2C)CC1 (stereo partly drawn) [Compound 3-007, 1-(4-((2R,3R)-1-(2-(difluorometh-yl)-6-(4.7-dimethyl-1-oxa-8-aza-spiro[4.5]dec-3-en-8-yl)pyrimidin-4-yl)-2-methyl-azetidin-3-yl)piper-azin-1-yl)-prop-2-en-1-one] to C=CC(=O)N1CCN([C@@H]2CN(c3cc(N4CCC5(CC4)OCCC=C5C)nc(C(F)F)n3)[C@@H]2C)CC1 [Compound 3-009, 1-(4-((2R,3R)-1-(2-(difluorometh-yl)-6-(5-methyl-1-oxa-9-azaspiro [5.5]undec-4-en-9-yl)-pyrimidin-4-yl)-2-methylazetidin-3-yl)piper-azin-1-yl)prop-2-en-1-one], the IC50 falls from 6.57 µM to 0.884 µM (7.4-fold).

C=CC(=O)N1CCN([C@@H]2CN(c3cc(N4CCC5(C=CCO5)CC4)nc(C(F)(F)F)c3C#N)[C@@H]2C)CC1 [Compound 3-010, 4-((2R,3R)-3-(4-acryloylpiperazin-1-yl)-2-methylazetidin-1-yl)-6-(1-oxa-8-azaspiro[4.5]dec-3-en-8-yl)-2-(trifluoromethyl)nicotinonitrile] and C=CC(=O)N1CCN([C@@H]2CN(c3cc(N4CCC5(C=CCO5)CC4)nc(C(F)(F)F)n3)[C@@H]2C)CC1 [Compound 3-011, 1-(4-((2R,3R)-1-(6-(1-oxa-8-aza-spiro[4.5]dec-3-en-8-yl)-2-(tri-fluoromethyl)pyrimidin-4-yl)-2-methylazetidin-3-yl)piperazin-1-yl)prop-2-en-1-one] are within 1.5-fold of each other in IC50: 0.66 µM for the first, 0.964 µM for the second.

Going from C=CC(=O)N1CCN([C@@H]2CN(c3cc(N4CCC5(C=CCO5)CC4)nc(C(F)F)n3)[C@@H]2C)CC1 [Compound 3-012, 1-(4-((2R,3R)-1-(2-(difluorometh-yl)-6-(1-oxa-8-azaspiro[4.5]dec-3-en-8-yl)pyrimidin-4-yl)-2-methyl-azetidin-3-yl)piperazin-1-yl)prop-2-en-1-one] to C=CC(=O)N1CCN([C@@H]2CN(c3cc(N4CCC5(C=CCOC5)CC4)nc(C(F)(F)F)n3)[C@@H]2C)CC1 [Compound 3-021, 1-(4-((2R,3R)-1-(6-(2-Oxa-9-azaspiro[5.5]undec-4-en-9-yl)-2-(trifluoromethyl)pyrimidin-4-yl)-2-methylazetidin-3-yl)piperazin-1-yl) prop-2-en-1-one], the IC50 rises from 2.54 µM to 3.86 µM (1.5-fold).

Compared with C=CC(=O)N1CCN(C2CN(c3cc(N4CCC5(CC4)c4ccccc4C(=O)N5C)nc(C(F)(F)F)n3)C2)CC1 [Compound 3-013], C=CC(=O)N1CCN(C2CN(c3cc(N4CCC5(CC4)COc4ccccc45)nc(C(F)(F)F)n3)C2)CC1 [Compound 3-018, 1-(4-(1-(6-(2H-spiro[benzofuran-3,4′-piperidin]-1′-yl)-2-(trifluoro-methyl)pyrimidin-4-yl)azetidin-3-yl)piperazin-1-yl)prop-2-en-1-one] is 2.8-fold lower in IC50: 5.64 µM for the first, 1.98 µM for the second.

Going from C=CC(=O)N1CCN([C@@H]2CN(c3cc(N4CCC5(CCC(=O)N5C)CC4)nc(C(F)(F)F)n3)[C@@H]2C)CC1 [Compound 3-020, 8-(6-((2R,3R)-3-(4-Acryloylpiperazin-1-yl)-2-methylazetidin-1-yl)-2-(trifluoromethyl)pyrimidin-4-yl)-1-methyl-1,8-diazaspiro[4.5]decan-2-one] to C=CC(=O)N1CCN([C@@H]2CN(c3cc(N4CCC5(CC4)C(F)(F)C54CC4)nc(C(F)(F)F)n3)[C@@H]2C)CC1 [Compound 3-022, 1-(4-((2R,3R)-1-(6-(10.10-difluoro-7-azadispiro[2.0.5^4.1^3]decan-7-yl)-2-(trifluoromethyl)pyrimidin-4-yl)-2-methylazetidin-3-yl)piperazin-1-yl)prop-2-en-1-one], the IC50 rises from 1.6 µM to 5.61 µM (3.5-fold).

Going from C=CC(=O)N1CCN([C@@H]2CN(c3cc(N4CCC5(CC4)CC5CN4CCCC4)nc(C(F)(F)F)n3)[C@@H]2C)CC1 (stereo partly drawn) [Compound 3-023, 1-(4-((2R,3R)-2-methyl-1-(6-(1-(pyrrolidin-1-ylmethyl)-6-azaspiro[2.5]octan-6-yl)-2-(trifluoromethyl)pyrimidin-4-yl)azetidin-3-yl)piperazin-1-yl)prop-2-en-1-one] to C=CC(=O)N1CCN([C@@H]2CN(c3cc(N4C5CCC4CC4(CCCO4)C5)nc(C(F)(F)F)n3)[C@@H]2C)CC1 (stereo partly drawn) [Compound 3-026, 1-(4-((2R,3R)-1-(6-(dihydro-3′H-8-azaspiro[bicyclo[3.2.1]octane-3,2′-furan]-8-yl)-2-(trifluoromethyl)pyrimidin-4-yl)-2-methylazetidin-3-yl)piperazin-1-yl)prop-2-en-1-one], the IC50 falls from 7.27 µM to 1.95 µM (3.7-fold). The second is the more potent here.

First: C=CC(=O)N1CCN(C2CN(c3cc(N4CCC5(CC4)COCCO5)nc(C(F)(F)F)c3C#N)C2)CC1 [Compound 3-024, 4-(3-(4-acryloylpiperazin-1-yl)azetidin-1-yl)-6-(1,4-dioxa-9-azaspiro[5.5]undecan-9-yl)-2-(trifluoromethyl)nicotinonitrile]
Second: C=CC(=O)N1CCN(C2CN(c3cc(N4C5CCC4CC4(CCCO4)C5)nc(C(F)(F)F)n3)C2)CC1 (stereo not drawn) [Compound 3-025, 1-(4-(1-(6-(dihydro-3′H-8-azaspiro[bicyclo[3.2.1]octane-3,2′-furan]-8-yl)-2-(trifluoromethyl)pyrimidin-4-yl)azetidin-3-yl)piperazin-1-yl)prop-2-en-1-one]
The IC50 of the first is 1.6-fold higher: 6.1 µM for the first, 3.72 µM for the second.

C=CC(=O)N1CCN(C2(C)CN(c3cc(N4CCC5(CC4)OCc4ccccc45)nc(C(F)(F)F)n3)C2)CC1 [Compound 3-027, 1-(4-(1-(6-(3H-spiro[isobenzofuran-1.4′-piperidin]-1′-yl)-2-(trifluoromethyl)pyrimidin-4-yl)-3-methylazetidin-3-yl)piperazin-1-yl)prop-2-en-1-one] showed an IC50 of 6.15 µM.
